Measurements reported in US20150087673A1, “METHODS FOR USING AND BIOMARKERS FOR AMPK-ACTIVATING COMPOUNDS” (RIGEL PHARMACEUTICALS, INC., priority 2013, published 2015).
pEC50: −log10 of the molar value.

These molecules were tested on AMPK (assay: AMPK activation assay (enzyme-linked immunosorbent assay)).
Format: cell-based
Outline: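 Read-out: immunodetected kinase activation after compound exposure, run with commercial kit reagents.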

Row | Compound | pEC50
1 | N#Cc1ccc(CN2CCC(NC(=O)c3ccc(C(=O)Nc4ccn(Cc5ccc(C#N)cc5)n4)cn3)CC2)cc1 [Compound 38, N^5-(1-(4-cyanobenzyl)-1H-pyrazol-3-yl)-N^2-(1-(4-cyanobenzyl)piperidin-4-yl)pyridine-2,5-dicarboxamide] | 6.00 to 6.30
2 | N#Cc1ccc(CN2CCC(NC(=O)c3ccc(NC4CCN(c5ccc(Cl)cc5)CC4)cn3)CC2)cc1 [Compound 139, 5-(1-(4-chlorophenyl)piperidin-4-ylamino)-N-(1-(4-cyanobenzyl)piperidin-4-yl)picolinamide] | > 6.30
3 | N#Cc1ccc(Oc2ccc(NC(=O)c3ccc(C(=O)N4CCN(Cc5ccc(F)cc5)CC4)cn3)cn2)cc1 [Compound 63, 5-(4-(4-fluorobenzyl)piperazine-1-carbonyl)-(6-(4-cyanophenoxy)pyridin-3-yl)picolinamide] | > 6.30
4 | O=C(NC1CCN(c2ccccc2)CC1)c1ccc(C(=O)N2CCN(Cc3ccc(F)cc3)CC2)cn1 [Compound 14, 5-(4-(4-fluorobenzyl)piperazine-1-carbonyl)-N-(1-(phenyl)piperidin-4-yl)picolinamide] | 6.00 to 6.30
5 | N#Cc1ccc(OC2CCN(c3ccc(C(=O)N4CCN(Cc5ccc(F)cc5)CC4)cn3)CC2)cc1 [Compound 188, 4-(1-(5-(4-(4-fluorobenzyl)piperazine-1-carbonyl)pyridin-2-yl)piperidin-4-yloxy)benzonitrile] | 6.00 to 6.30
6 | N#Cc1ccc(CN2CCC(NC(=O)c3ccc(C(=O)N4CCC(c5ccc(Cl)cc5)CC4)cn3)CC2)cc1 [Compound 134, 5-(4-(4-chlorophenyl)piperidine-1-carbonyl)-N-(1-(4-cyanobenzyl)piperidin-4-yl)picolinamide] | > 6.30
7 | O=C(c1ccc(C(=O)N2CCN(CCc3ccccc3)CC2)nc1)N1CCN(CCc2ccccc2)CC1 [Compound 92, pyridine-2,5-diylbis((4-phenethylpiperazin-1-yl)methanone)] | < 5.00
8 | O=C(c1ccc(Nc2cccc(-c3ccccc3)c2)nc1)N1CCN(Cc2ccc(F)cc2)CC1 [Compound 33, (6-(3-phenylphenylamino)pyridin-3-yl)(4-(4-fluorobenzyl)piperazin-1-yl)methanone] | 5.00 to 5.30
9 | COc1ccc(CC2CCN(C(=O)c3ccc(C(=O)NC4CCN(Cc5ccc(C#N)cc5)CC4)nc3)CC2)cc1F [Compound 146, N-(1-(4-cyanobenzyl)piperidin-4-yl)-5-(4-(3-fluoro-4-methoxybenzyl)piperidine-1-carbonyl)picolinamide] | > 6.30
10 | O=C(NC1CCN(C(=O)C2CCCCC2)CC1)c1ccc(C(=O)N2CCN(Cc3ccc(F)cc3)CC2)cn1 [Compound 7, N-(1-(cyclohexanecarbonyl)piperidin-4-yl)-5-(4-(4-fluorobenzyl)piperazine-1-carbonyl)picolinamide] | > 6.30
11 | N#Cc1ccc(CN2CCC(NC(=O)c3ccc(C(=O)N4CCC(Oc5ccc(C(F)(F)F)cc5)CC4)cn3)CC2)cc1 [Compound 157, N-(1-(4-cyanobenzyl)piperidin-4-yl)-5-(4-(4-(trifluoromethyl)phenoxy)piperidine-1-carbonyl)picolinamide] | > 6.30
12 | O=C(NC1CCN(Cc2ccc(F)cc2)CC1)c1ccc(C(=O)N2CCC(C(=O)c3ccc(F)cc3)CC2)cn1 [Compound 181, 5-(4-(4-fluorobenzoyl)piperidine-1-carbonyl)-N-(1-(4-fluorobenzyl)piperidin-4-yl)picolinamide] | > 6.30
13 | N#Cc1ccc(O[C@H]2CC[C@H](NC(=O)c3ccc(C(=O)N4CCC(C(=O)c5ccc(F)cc5)CC4)cn3)CC2)cc1 [Compound 168, N-((trans)-4-(4-cyanophenoxy)cyclohexyl)-5-(4-(4-fluorobenzoyl)piperidine-1-carbonyl)picolinamide] | > 6.30
14 | N#Cc1ccc(CN2CCC(NC(=O)c3ccc(-c4cn(Cc5ccccc5)nn4)cn3)CC2)cc1 [Compound 121, 5-(1-benzyl-1H-1,2,3-triazol-4-yl)-N-(1-(4-cyanobenzyl)piperidin-4-yl)picolinamide] | 5.30 to 6.00
15 | O=C(NCc1ccccc1)c1ccc(C(=O)N2CCN(Cc3ccc(F)cc3)CC2)cn1 [Compound 115, N-benzyl-5-(4-(4-fluorobenzyl)piperazine-1-carbonyl)picolinamide] | 5.00 to 5.30
16 | O=C(Nc1ccc(Oc2cccc(F)c2)cc1)c1ccc(C(=O)N2CCN(Cc3ccc(F)cc3)CC2)cn1 [Compound 55, 5-(4-(4-fluorobenzyl)piperazine-1-carbonyl)-N-(4-(3-fluorophenoxy)phenyl)picolinamide] | > 6.30

Other lines, results leading:

Row | pEC50 | Compound
17 | 5.30 to 6.00 | COc1ccc(CN2CCC(NC(=O)c3ccc(C(=O)N4CCC(S(=O)(=O)c5ccc(F)cc5)CC4)nc3)CC2)cc1 [Compound 474, 6-(4-(4-fluorophenylsulfonyl)piperidine-1-carbonyl)-N-(1-(4-methoxybenzyl)piperidin-4-yl)nicotinamide]
18 | > 6.30 | COc1ccc(CN2CCC(NC(=O)c3ccc(C(=O)N4CCC(Oc5ccc(NC(C)=O)cc5)CC4)nc3)CC2)cc1 [Compound 407, 6-(4-(4-acetamidophenoxy)piperidine-1-carbonyl)-N-(1-(4-methoxybenzyl)piperidin-4-yl) nicotinamide]
19 | > 6.30 | CS(=O)(=O)c1ccc(OC2CCN(C(=O)c3ccc(C(=O)N[C@@H]4CCN(Cc5ccc(C#N)cc5)C[C@H]4F)nc3)CC2)cc1 (relative stereo) [Compound 254, N-((trans)-1-(4-cyanobenzyl)-3-fluoropiperidin-4-yl)-5-(4-(4-(methylsulfonyl)phenoxy)piperidine-1-carbonyl)picolinamide]
20 | 5.30 to 6.00 | COc1ccc(CN2CCC(NC(=O)c3ccc(C(=O)N4CCC(C(=O)c5ccc(S(C)(=O)=O)cc5)CC4)nc3)CC2)cc1 [Compound 223, N-(1-(4-methoxybenzyl)piperidin-4-yl)-6-(4-(4-(methylsulfonyl)benzoyl)piperidine-1-carbonyl)nicotinamide]
21 | > 6.30 | COc1ccc(C(=O)C2CCN(C(=O)c3ccc(C(=O)N[C@H]4CC[C@@H](Oc5cc(F)cc(F)c5)CC4)nc3)CC2)cc1 [Compound 300, N-((cis)-4-(3,5-difluorophenoxy)cyclohexyl)-5-(4-(4-methoxybenzoyl)piperidine-1-carbonyl)picolinamide]
22 | > 6.30 | O=C(Nc1ccc(Oc2ccc(F)cc2)nc1)c1ccc(C(=O)N2CCC(C(=O)c3ccc(N4CCOCC4)cc3)CC2)cn1 [Compound 379, N-(6-(4-fluorophenoxy)pyridin-3-yl)-5-(4-(4-morpholinobenzoyl)piperidine-1-carbonyl)picolinamide]
23 | > 6.30 | O=C(NC1CCN(Cc2ccc(F)cc2)CC1)c1ccc(C(=O)N2CCN(Cc3ccc(F)cc3)CC2)nc1 [Compound 328, 6-(4-(4-fluorobenzyl)piperazine-1-carbonyl)-N-(1-(4-fluorobenzyl)piperidin-4-yl)nicotinamide]
24 | < 5.00 | CS(=O)(=O)Nc1ccc(CN2CCC(NC(=O)c3ccc(C(=O)N4CCC(Oc5ccc(C#N)cc5)CC4)nc3)CC2)cc1 [Compound 217, 6-(4-(4-cyanophenoxy)piperidine-1-carbonyl)-N-(1-(4-(methylsulfonamido)benzyl)piperidin-4-yl)nicotinamide]
25 | > 6.30 | N#Cc1ccc(CN2CCC(NC(=O)c3ccc(C(=O)N4CCC(C(=O)c5ccc(N6CCCC6)cc5)CC4)nc3)CC2)cc1 [Compound 377, N-(1-(4-cyanobenzyl)piperidin-4-yl)-6-(4-(4-(pyrrolidin-1-yl)benzoyl)piperidine-1-carbonyl)nicotinamide]
26 | < 5.00 | N#Cc1ccc(-c2nnc3n2CCN(C(=O)c2ccc(C(=O)NC4CCN(Cc5cc(F)cc(F)c5)CC4)nc2)C3)cc1 [Compound 314, 5-(3-(4-cyanophenyl)-5,6,7,8-tetrahydro-[1,2,4]triazolo[4,3-a]pyrazine-7-carbonyl)-N-(1-(3,5-difluorobenzyl)piperidin-4-yl)picolinamide]
27 | > 6.30 | COc1cccc(OC2CCCN(C(=O)c3ccc(C(=O)NC4CCN(Cc5ccc(C#N)cc5)CC4)nc3)C2)c1 (stereo not shown) [Compound 277, N-(1-(4-cyanobenzyl)piperidin-4-yl)-5-(3-(3-methoxyphenoxy)piperidine-1-carbonyl)picolinamide]
28 | > 6.30 | N#Cc1ccc(CN2CCC(NC(=O)c3ccc(C(=O)N4CC(Oc5ccc(C#N)cc5)C4)cn3)CC2)cc1 [Compound 209, N-(1-(4-cyanobenzyl)piperidin-4-yl)-5-(3-(4-cyanophenoxy)azetidine-1-carbonyl)picolinamide]
29 | > 6.30 | O=C(NC1CCN(Cc2cc(F)cc(F)c2)CC1)c1ccc(C(=O)N2CCC(Oc3ccc(F)cc3)CC2)cn1 [Compound 295, N-(1-(3,5-difluorobenzyl)piperidin-4-yl)-5-(4-(4-fluorophenoxy)piperidine-1-carbonyl)picolinamide]
30 | > 6.30 | COc1ccc(CN2CCC(NC(=O)c3ccc(C(=O)N4CCC(C(=O)c5ccc(S(C)(=O)=O)cc5)CC4)cn3)CC2)cc1 [Compound 234, N-(1-(4-methoxybenzyl)piperidin-4-yl)-5-(4-(4-(methylsulfonyl)benzoyl)piperidine-1-carbonyl)picolinamide]
31 | > 6.30 | COc1ccc(CN2CCC(NC(=O)c3ccc(C(=O)N4CCC(Oc5ccc(F)cc5F)CC4)nc3)CC2)cc1 [Compound 344, 6-(4-(2,4-difluorophenoxy)piperidine-1-carbonyl)-N-(1-(4-methoxybenzyl)piperidin-4-yl)nicotinamide]
32 | < 5.00 | CS(=O)(=O)Nc1ccc(OC2CCN(C(=O)c3ccc(C(=O)NC4CCN(Cc5ccc(C#N)cc5)CC4)cn3)CC2)cc1 [Compound 367, N-(1-(4-cyanobenzyl)piperidin-4-yl)-6-(4-(4-(methylsulfonamido)phenoxy)piperidine-1-carbonyl)nicotinamide]
33 | > 6.30 | N#Cc1ccc(CN2CCC(NC(=O)c3ccc(C(=O)N4CCC(C(=O)c5ccc(-n6cccn6)cc5)CC4)cn3)CC2)cc1 [Compound 375, 5-(4-(4-(1H-pyrazol-1-yl)benzoyl)piperidine-1-carbonyl)-N-(1-(4-cyanobenzyl)piperidin-4-yl)picolinamide]
34 | > 6.30 | N#Cc1ccc(CN2CCC(NC(=O)c3cnc(C(=O)N4CCC(C(=O)c5ccc(N6CCCC6)cc5)CC4)cn3)CC2)cc1 [Compound 219, N-(1-(4-cyanobenzyl)piperidin-4-yl)-5-(4-(4-(pyrrolidin-1-yl)benzoyl)piperidine-1-carbonyl)pyrazine-2-carboxamide]
